Measured values: PMC6843786, “Temporin-SHa and Its Analogs as Potential Candidates for the Treatment of Helicobacter pylori” (Biomolecules, 2019)
“Also recorded” adds a separate entry of the source. Read-outs that look alike come from different tables or passages of the source. Non-standard residues stand in square brackets, D forms with d. Residues, ends and D or L forms follow the SMILES beside them.

Columns and labels:
[1] = test system: H. pylori (ATCC 43504)
Method: (§1) Briefly, after the growth of H. pylori in liquid culture the optical density (OD) of the bacterial suspensions were read at 600 nm and adjusted to one. Stock solutions of the peptides at 1 mM were prepared in sterile water. Bacteria were diluted in medium to reach bacterial density around 10^5 bacteria/mL. One-hundred microliters per well of bacterial suspension were then added into sterile polypropylene 96-well microplates (Greiner BioOne, Paris, France) and exposed to increasing concentrations of peptides (from zero to 100 µM, 1:2 serial dilution). […] Plates were incubated at 37 °C for 24 h for H. pylori (ATCC 43504) and for 4–7 days for the clinical strains. H. pylori was tested in microaerophilic conditions generated using micro-anaerobic BD GasPak system. At the end of the incubation, OD600nm was measured using microplate reader (Synergy Mx, Biotek, Colmar, France). The MIC was defined as the lowest concentration of drug that inhibited visible growth of the organism. Experiments were conducted in independent triplicate (n = 3).
(§2) It is also rich with mucus to protect it from the aggressive acidity. For this reason, the impact of mucins and pepsin on the activity of the peptides was investigated. The impact of the gastric mucins on peptide activity was evaluated using a combination of commercial porcine stomach mucins MUC2 and MUC3 (Sigma–Aldrich) at a final concentration of 1 mg/mL sterilized using 0.2 µm filter. This concentration was used based on the estimated concentration of mucins present in the mucus in vivo [27]. The effect of mucins on peptides activity was evaluated by MIC and by time killing assay as explained below. The resistance of the peptides to pepsin was tested as previously described with some changes. […] This concentration was used since it corresponds the pepsin concentration in the stomach (0.5–1 mg/mL).

[2] = test system: H. pylori (ATCC 43504); remark: listed apart in the source
Method: The bactericidal activity of peptides was assessed using the time kill assay as previously described with some modifications. Briefly, overnight liquid culture of H. pylori (ATCC 43504) was prepared and an optical density measurement (OD600nm) was taken to provide an estimation of cell numbers in the culture. Bacterial suspension was then centrifuged at 3000 rpm for 5 min and the bacterial pellet was then resuspended in sterile PBS pH6 at approximatively 10^7 CFU/mL. The pH of PBS was changed from 7 to 6 with HCl to mimic the micro-environment surrounding H. pylori in the stomach. Indeed, although the lumen of the stomach is around 1–2, H. pylori is able, through the activity of its urease, to create a local micro-environment around it of pH 6 [31]. In addition to PBS pH 6, the time kill assay was also performed in PBS pH 6 containing a mixture of porcine stomach mucins MUC2 and MUC3 (at 1 mg/mL, final concentration) or in the presence of human gastric cells N87 producing human mucus. In that particular case, N87 cells were seeded onto 96-wells plates and left to grow for 48–72 h until they reached confluence. At that time, wells were aspirated and bacterial suspension in PBS pH 6 were added to the wells. In all cases, resuspended bacteria (200 µL) were treated with peptides or the conventional antibiotic amoxicillin at a final concentration corresponding to five times their MIC. Bacteria were then incubated in micro-aerobic conditions at 37 °C using GasPak units. […] The petri dishes were then incubated 16 h at 37 °C in microaerophilic conditions before counting of growing colonies. The number of surviving bacteria was calculated using the number of observed colonies and the dilution factor. The experiment was done in triplicate.

[3] = test system: H. pylori (ATCC 43504); test: MIC after digestion by pepsin (resistance to pepsin)
Method: as §1, §2

[4] = test system: total lipids extracted from H. pylori (ATCC 43504); test: Lipid insertion assay (lipid monolayer, critical pressure of insertion); design: species or system biophysical; details: peptide 1 µM, PBS pH 7.4, from the line fits of Figure 4
Method: Peptide-lipid interaction was measured using reconstituted lipid monolayer at the air-water interface as previously described. Total lipids were extracted from overnight cultures of H. pylori (ATCC 43504) using Folch extraction procedure as previously described. Extracted total lipids were dried, resolubilized in chloroform:methanol (2:1, v/v) and stored at -20 °C under nitrogen. For peptide-lipid interaction assay, total lipid extract was spread using a 50 μL Hamilton's syringe at the surface of 800 μL of sterile PBS creating a lipid monolayer at the air-water interface. Lipids were added until the surface pressure reached the desired value. […] The variation of the surface pressure caused by peptide injection was then continuously monitored using a fully automated microtensiometer (μTROUGH SX, Kibron Inc., Helsinki, Finland) until reaching equilibrium (maximal surface pressure increase being usually obtained after 15-25 min). […] Variation of surface pressure was plotted as a function of initial surface pressure and the critical pressure of insertion of each peptide into H. pylori lipids was calculated as the theoretical value of initial pressure of lipid monolayer not permissive to peptide insertion, i.e., giving a variation of pressure equal to 0 mN/m.

SMILES: CC[C@H](C)[C@H](NC(=O)CNC(=O)[C@H](CO)NC(=O)[C@H](CC(C)C)NC(=O)[C@@H](N)Cc1ccccc1)C(=O)N[C@H](C(=O)NCC(=O)N[C@@H](CCSC)C(=O)N[C@@H](CC(C)C)C(=O)N[C@H](C)C(=O)N[C@@H](CCCCN)C(=O)N[C@@H](CC(C)C)C(=O)N[C@@H](Cc1ccccc1)C(N)=O)C(C)C [NST1, H-Phe^1-Leu^2-Ser^3-Gly^4-Ile^5-Val^6-Gly^7-Met^8-Leu^9-D-Ala^10-Lys^11-Leu^12-Phe^13-NH2] (H-FLSGIVGML[dA]KLF-NH2)
- increase of MIC in the presence of mucins ([1]; MUC2 and MUC3 at 1 mg/mL versus no mucins): two
- MIC in the Presence of mucins ([1]; porcine gastric mucins MUC2 and MUC3 at 1 mg/mL): 3.12 µM
- decrease of the number of CFUs ([2]; 20 min, PBS pH 6, 5-times MIC): three
- killing ([2]; 20 min, PBS pH 6, 5-times MIC): 99%
- killing ([2]; 60 min, presence of mucus (porcine MUC2/MUC3 1 mg/mL or N87 cells), 5-times MIC): 91–98%
- survival ([2]; 3 h, PBS pH 6, 5-times MIC): 0%
- MIC after Digestion by Pepsin ([3]; 4 h at 37 °C with pepsin 1 mg/mL in HCl pH 2): 25 µM
- resistance to pepsin (in words) ([3]; 4 h at 37 °C with pepsin 1 mg/mL, HCl pH 2): partial resistance towards pepsin; also recorded: partial resistance to the digestion by pepsin
- critical pressure of insertion (CPI) [4]: 38.65 mN/m
